# Test results taken from patent US20110160399A1, “HISTONE MODIFICATION INHIBITOR SPECIFIC TO TARGET GENE” (NIHON UNIVERSITY, priority 2008, published 2011).
# Key:
# [1] = system: histone deacetylase (HDAC); experiment: HDAC activity assay (HDAC Fluorimetric Assay/Drug Discovery Kit); type: biochemical, human; conditions: HDAC-containing HeLa cell nuclear fraction, 37°C for 1 hour, various concentrations; FIG. 2
# Procedure: To verify whether the activity of histone deacetylase (HDAC) was inhibited by compounds composed of the synthesized SAHA derivatives and polyamides attached to each other, an HDAC Fluorimetric Assay/Drug Discovery Kit (BIOMOL international) was used in the experiment. Although details followed the instructions of the kit manufacturer, an HDAC-containing HeLa cell (human uterine cervical cancer cell line) nuclear fraction was added to an acetylation substrate and incubated at 37° C. for 1 hour in the presence of various concentrations of the synthesized compounds or trichostatin A (hereinafter referred to as TSA) used as a positive control, followed by addition of the developer included in the kit to stop the HDAC-catalyzed reaction. Then, the samples were transferred to a 96-well assay plate and measured with ARVO EX (Perkin Elmer) for emission at 460 nm from the reaction product upon excitation at 360 nm.
# [2] = system: acetylation of histone H3 lysine 9 in the p16 genomic region; experiment: Genomic region-specific acetylation analysis (ChIP, anti-histone H3K9 acetyl antibody), p16 genomic region; type: cell-based, human; conditions: HeLa cells, 150 nM, 7 days; FIG. 10
# Procedure: In a 10% fetal bovine serum-containing DMEM medium prepared to contain the synthesized compound (SAHA+p16 PIP or SAHA+non-targeting PIP) or SAHA at a final concentration of 150 nM, HeLa cells were cultured at 37° C. in the presence of 5% CO2 for 7 days. After culture, 5×10^6 to 1×10^7 confluent cells were harvested in 100 mm diameter cell culture dishes (Corning 430167) and then subjected to chromatin immunoprecipitation assay with a MILIPORE 17-295 Chromatin Immunoprecipitation (ChIP) assay kit.
# The detailed procedures used are as follows. To the harvested cells cultured for 7 days, formalin was added at a final concentration of 1% and incubated at 37° C. for 10 minutes to fix the cells, whereby proteins and DNAs were crosslinked within the cells. Then, glycine was added at a final concentration of 0.25 M and the supernatant was removed, followed by washing the cell layer. Then, the cell layer was treated with 220 μl lysis buffer and the cell lysate was collected with a scraper. […] Real-time RT-PCR.” More specifically, the purified DNA was quantitatively analyzed with SYBR premix EX Taq (TAKARA BIO, Shiga, Japan) in a Thermal Cycler Dice Real-time System TP-800 (TAKARA BIO, Shiga, Japan). […]
# [3] = system: RKO (human large bowel cancer cell line); experiment: Cell proliferation assay (WST-8) on RKO cells; type: cell-based
# Procedure: Next, the synthesized compounds were verified by WST-8 assay for their ability to suppress cancer cell proliferation.
# Cell lines of HeLa (human uterine cervical cancer cell line), LOVO, RKO and SW480 (each of which was a human large bowel cancer cell line) were each cultured at 37° C. under 5% carbon dioxide conditions using Dulbecco's modified Eagle's medium (DMEM, Nacalai Tesque, Inc., Japan) supplemented with 10% fetal bovine serum (FBS: JRH bioscience, USA), antibiotics (50 U/ml penicillin and 50 μg/ml streptomycin) and 1 mM sodium pyruvate. Single-layered cells grown to 80-90% confluency on 10 cm cell culture dishes were washed with D-PBS(−) (Nacalai Tesque, Inc., Japan) and then released from the dishes by being treated with a phenol red-containing 2.5 g/L-Trypsine/1 mmol/L EDTA solution (Nacalai Tesque, Inc., Japan). The released cells were adjusted and maintained in fresh medium.
# Each cell line seeded at 3×10^3 cells/well in a MICROTEST tissue culture plate (96 well, FALCON) was cultured at 37° C. under 5% carbon dioxide conditions for 24 hours, and then cultured in the presence of various concentrations of PI polyamide for an additional 72 hours. After completion of the culture, 10 μl of viable cell counting reagent SF (Nacalai Tesque, Inc., Japan) was added to each well and the absorbance at 450 nm was measured by ARVO EX (PerkinElmer). During the period from reagent addition until assay, incubation was continued at 37° C. in the presence of 5% CO2 until the absorbance reached about 1.2 to 2.0 in the control sample where only 50% DMSO was added to the cells.
smiles,measurement,setting,value
"CN(C)CCCNC(=O)CCNC(=O)c1cc(NC(=O)c2nc(NC(=O)c3nc(NC(=O)CCNC(=O)c4cc(NC(=O)c5nc(NC(=O)CCCNC(=O)c6cc(NC(=O)c7nc(NC(=O)CCNC(=O)c8cc(NC(=O)c9cc(NC(=O)c%10nc(NC(=O)CCNC(=O)CCNC(=O)c%11ccc(NC(=O)CCCCCCC(=O)NO)cc%11)cn%10C)cn9C)cn8C)cn7C)cn6C)cn5C)cn4C)cn3C)cn2C)cn1C [SAHA+p16 PIP, SAHA-ββImPyPyβImPyγImPyβImImPyβDp]",anti-HDAC activity,[1],confirmed to have anti-HDAC activity
same,acetylation of histone H3 lysine 9 in the p16 genomic region,[2],enhanced acetylation
same,enhancement of histone H3 lysine 9 acetylation in the p16 genomic region compared to SAHA alone or SAHA+non-targeting PIP,[2],about 2 fold
same,suppression of RKO cell proliferation at 100 nM,"[3]; 100 nM, 72 hours, FIG. 4",not suppressed
same,inhibition of RKO cell proliferation,"[3]; 72 hours, WST-8, FIG. 4",inhibit proliferation
same,"ability to suppress proliferation, compared among the 4 cancer cell lines (RKO)","[3]; FIG. 4, listed as p16 PIP attached to the SAHA derivative",high and lowest
